From ChEMBL document CHEMBL4270535, “Facile synthesis of vanillin-based novel bischalcones identifies one that induces apoptosis and displays synergy with Artemisinin in killing chloroquine resistant Plasmodium falciparum” (Eur J Med Chem, 2018)

Columns and labels:
[1] = tested on: Plasmodium falciparum; experiment: Antiplasmodial activity against synchronized ring stage of chloroquine-sensitive Plasmodium falciparum 3D7 infected in human erythrocytes after 48 hrs by SYBR Green 1 dye based fluorescence assay; format: functional, organism-based; conditions: 3D7, 48 h
[2] = tested on: Plasmodium falciparum; experiment: Antiplasmodial activity against synchronized ring stage of chloroquine-resistant Plasmodium falciparum INDO infected in human erythrocytes after 48 hrs by SYBR Green 1 dye based fluorescence assay; format: functional, organism-based
[3] = tested on: Plasmodium falciparum; experiment: Antiplasmodial activity against synchronized ring stage of chloroquine-resistant Plasmodium falciparum Dd2 infected in human erythrocytes after 48 hrs by SYBR Green 1 dye based fluorescence assay; format: functional, organism-based; conditions: Dd2, 48 h
[4] = Selectivity index, ratio of IC50 for mouse L929 cells to IC50 for synchronized ring stage of chloroquine-sensitive Plasmodium falciparum 3D7 infected in human erythrocytes; format: toxicity, cell-based; conditions: read-out: Ratio IC50
[5] = Resistance index, ratio of IC50 for synchronized ring stage of chloroquine-resistant Plasmodium falciparum INDO infected in human erythrocytes to IC50 for synchronized ring stage of chloroquine-sensitive Plasmodium falciparum 3D7 infected in human erythrocytes; format: functional
[6] = Selectivity index, ratio of IC50 for human HeLa cells to IC50 for synchronized ring stage of chloroquine-sensitive Plasmodium falciparum 3D7 infected in human erythrocytes; format: toxicity, cell-based; conditions: read-out: Ratio IC50
[7] = Resistance index, ratio of IC50 for synchronized ring stage of chloroquine-resistant Plasmodium falciparum Dd2 infected in human erythrocytes to IC50 for synchronized ring stage of chloroquine-sensitive Plasmodium falciparum 3D7 infected in human erythrocytes; format: functional

IC50 [1] | Structure (SMILES) | IC50 [2] | IC50 [3] | selectivity ratio [4] | Ratio IC50 [5] | selectivity ratio [6] | Ratio IC50 [7]
> 50 µM | C=CCOc1c(OC)cc(/C=C/C(=O)c2ccc(Br)cc2)cc1-c1cc(/C=C/C(=O)c2ccc(Br)cc2)cc(OC)c1OCC=C | – | – | – | – | – | –
> 50 µM | C=CCOc1c(OC)cc(/C=C/C(=O)c2ccc(Cl)cc2)cc1-c1cc(/C=C/C(=O)c2ccc(Cl)cc2)cc(OC)c1OCC=C | – | – | – | – | – | –

Second part, the molecule before the results:

Structure (SMILES) | IC50 [1] | IC50 [2] | IC50 [3] | selectivity ratio [4] | Ratio IC50 [5] | selectivity ratio [6] | Ratio IC50 [7]
C=CCOc1c(OC)cc(/C=C/C(=O)c2cc3ccccc3oc2=O)cc1-c1cc(/C=C/C(=O)c2cc3ccccc3oc2=O)cc(OC)c1OCC=C | 18.4 µM | – | – | – | – | – | –
C=CCOc1ccc(/C=C/C(=O)c2cccc(C(=O)/C=C/c3ccc(OCC=C)c(OC)c3)c2)cc1OC | > 50 µM | – | – | – | – | – | –
C=CCOc1ccc(C(=O)/C=C/c2cc(OC)c(OCC=C)c(-c3cc(/C=C/C(=O)c4ccc(OCC=C)cc4OCC=C)cc(OC)c3OCC=C)c2)c(OCC=C)c1 | 63 µM | – | – | – | – | – | –
C=CCOc1c(OC)cc(/C=C/C(=O)c2ccc3c(c2)OCO3)cc1-c1cc(/C=C/C(=O)c2ccc3c(c2)OCO3)cc(OC)c1OCC=C | 38 µM | 3.8 µM | 3.8 µM | > 2.6 | 0.1 | > 2.6 | 0.1
C=CCOc1c(OC)cc(/C=C/C(=O)c2ccccc2)cc1-c1cc(/C=C/C(=O)c2ccccc2)cc(OC)c1OCC=C | 7 µM | 3.5 µM | 2.1 µM | 7.1 | 0.5 | > 28.6 | 0.3
